In brackets after ≈: the same amount, converted by molar mass.
Key:
human D2R/β-arrestin [1] = target: T1, human D2R/β-arrestin (Homo sapiens (Human), UniProt P14416); test: β-Arrestin agonist assay (PathHunter); format: cell-based; settings: CHO-K1 cell line expressing human D2R/β-arrestin
Method in brief: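 After compound incubation, detection reagent (Buffer:Emerald II:Galactor-Star, 19:5:1) added and luminescence or fluorescence read.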

human D2R/β-arrestin [2] = target: T1, human D2R/β-arrestin; test: Gi/cAMP agonist assay (Lance Ultra cAMP, Forskolin); format: cell-based; settings: CHO-K1 cell line expressing human D2R/β-arrestin
Method in brief: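 Cells were plated and incubated before compounds were pin-transferred and incubated for 10 min at 37 °C. Forskolin was then added to stimulate cAMP. cAMP was detected by Lance Ultra TR-FRET using Eu-cAMP tracer and ULight-anti-cAMP antibody.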

Solubility in PBS = format: physicochemical; settings: aqueous buffer
[3] = Plasma protein binding, human; format: in vitro ADME; settings: plasma, read-out: Plasma Protein Binding % bound
[4] = Plasma protein binding, mouse; format: in vitro ADME; settings: plasma, read-out: Plasma Protein Binding % bound
[5] = Plasma protein binding, rat; format: in vitro ADME; settings: plasma, read-out: Plasma Protein Binding % bound
Plasma stability, human = format: in vitro ADME
Plasma stability, rat = format: in vitro ADME
[6] = Microsomal stability, human; format: in vitro ADME
[7] = Microsomal stability, rat; format: in vitro ADME
human D2R/β-arrestin [8] = target: T1, human D2R/β-arrestin; test: cell-based; settings: β-arrestin Antagonist, CHO-K1 cell line expressing human D2R/β-arrestin; quinpirole used as agonist
human D2R/β-arrestin [9] = target: T1, human D2R/β-arrestin; test: cell-based; settings: cAMP Antagonist, CHO-K1 cell line expressing human D2R/β-arrestin; quinpirole used as agonist
Description: The detection reagents are then added, and the read-out is detected.
Cells were prepared for assays by growing cultures for up to 2 weeks (from about 6-20 passages). A vial of frozen cells was thawed in a water bath held at 37° C. The cells were then transferred into a 50 ml tube with 10 ml growth media. The vial was rinsed with growth media and the contents transferred to the 50 ml tube. The 50 ml tube was centrifuged at 1200 rpm for 5 minutes at room temperature. […] When the cells reached about 90% confluence (approximately 3 days between passages), the cells were passaged and used for either the agonist or antagonist assays as described below.
The cells were prepared for Gi/cAMP assays as described above. The assays were performed using a PE Lance Ultra cAMP kit (TRF0263). The cells were grown on 225 mm dishes, then washed once with 1×PBS (Cellgro) before digestion with 2.5 ml 1× Detachment reagent (DRX 92-0009) for about 2 minutes. PBS (20 ml) was then added to the plate, and the cells were transferred to a 50 ml centrifuge tube, and centrifuged at room temperature using BD Dynac III, at 1200 rpm for 5 minutes. […] The plates were then incubated at room temperature for about 30 minutes before addition of Eu-cAMP tracer solution (100, PerkinElmer) and then ULight-anti-cAMP solution (100) to each well.

[10] = Microsomal stability, mouse
Caco2 = Caco2 permeability; format: in vitro ADME; set-up: unit not given beside the values; settings: for Caco2 A-B: A-B direction; for Caco2 B-A: B-A direction
plasma protein [11] = test: Plasma protein binding, human; format: in vitro ADME; settings: plasma, read-out: Plasma Protein Binding % bound
plasma protein [12] = test: Plasma protein binding, mouse; format: in vitro ADME; settings: plasma, read-out: Plasma Protein Binding % bound
plasma protein [13] = test: Plasma protein binding, rat; format: in vitro ADME; settings: plasma, read-out: Plasma Protein Binding % bound
D2 = D2 (Homo sapiens (Human), UniProt P14416); test: D2 radioligand binding assay
human D2R/β-arrestin [14] = target: T1, human D2R/β-arrestin; settings: CHO-K1 cell line expressing human D2R/β-arrestin, β-arrestin and Gi/cAMP pathways, FIG. 1

Chain of D2 (P14416 whole entry): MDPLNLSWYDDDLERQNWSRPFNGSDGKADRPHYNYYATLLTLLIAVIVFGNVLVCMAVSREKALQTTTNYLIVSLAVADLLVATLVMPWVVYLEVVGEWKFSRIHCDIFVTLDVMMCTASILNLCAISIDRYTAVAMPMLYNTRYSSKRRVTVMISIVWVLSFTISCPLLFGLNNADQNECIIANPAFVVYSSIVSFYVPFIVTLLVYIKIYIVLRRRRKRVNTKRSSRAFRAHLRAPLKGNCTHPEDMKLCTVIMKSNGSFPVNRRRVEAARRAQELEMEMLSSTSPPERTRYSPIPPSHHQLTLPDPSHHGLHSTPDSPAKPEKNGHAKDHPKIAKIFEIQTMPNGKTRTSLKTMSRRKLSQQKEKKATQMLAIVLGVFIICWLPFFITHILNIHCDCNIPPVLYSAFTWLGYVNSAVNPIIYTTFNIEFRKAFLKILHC
T1 sequence (P14416 whole entry): as above

SMILES	EC50 (human D2R/β-arrestin [1]) [µM]	EC50 (human D2R/β-arrestin [2]) [µM]	solubility (Solubility in PBS) [µM]	fraction unbound [3]	fraction unbound [4]	fraction unbound [5]	Plasma Stability: % remaining after 5 hours (Plasma stability, human) [%]	Plasma Stability: % remaining after 5 hours (Plasma stability, rat) [%]	Microsomal Stability: % remaining after 60 minutes [6] [%]	Microsomal Stability: % remaining after 60 minutes [7] [%]	IC50 (human D2R/β-arrestin [8]) [µM]	IC50 (human D2R/β-arrestin [9]) [µM]	Plasma Stability: % remaining after 5 hours (Plasma stability, mouse) [%]	Microsomal Stability: % remaining after 60 minutes [10] [%]	Caco2 A-B (Caco2)	Caco2 B-A (Caco2)	fraction unbound (plasma protein [11])	fraction unbound (plasma protein [12])	fraction unbound (plasma protein [13])	Ki (D2) [µM]	further results
O=C(NC(c1ccncc1)c1ccc(Cl)cc1)C1CCN(CCOc2ccccc2)CC1 (centres unmarked) [Compound 112, N-((4-chlorophenyl)(pyridin-4-yl)methyl)-1-(2-phenoxyethyl)piperidine-4-carboxamide]	> 30	< 0.1	19 (≈ 8.55 µg/mL)	0.064	0.05	0.02	100	95	52	53	1 to 10	> 30	95	29	–	–	–	–	–	–	–
COc1cccc(C(NC(=O)C2CCN(CCOc3ccccc3)CC2)c2ccccc2)c1 (centres unmarked) [Compound 146, N-((3-methoxyphenyl)(phenyl)methyl)-1-(2-phenoxyethyl)piperidine-4-carboxamide]	> 30	> 30	–	0.022	0.04	0.021	98	88	56	27	1 to 10	1 to 10	96	36	–	–	–	–	–	–	–
O=C(NC(c1ccc(F)cc1)c1ccccn1)C1CCN(CCOc2ccccc2Cl)CC1 (centres unmarked) [Compound 53, 1-(2-(2-chlorophenoxy)ethyl)-N-((4-fluorophenyl)(pyridin-2-yl)methyl) piperidine-4-carboxamide]	> 30	> 30	149 (≈ 69.7 µg/mL)	–	–	–	100	78	42	16	< 0.1	< 0.1	96	3	27.4	23.9	0.21	0.021	0.086	0.1 to 1	–
O=C(NC(c1ccc(Cl)cc1)c1ccccc1F)C1CCN(CCOc2ccccc2)CC1 (centres unmarked) [Compound 40, N((4-chlorophenyl)(2-fluorophenyl)methyl)-1-(2-phenoxyethyl) piperidine-4-carboxamide]	> 30	> 30	0.4 (≈ 0.187 µg/mL)	–	–	–	100	90	45	57	0.1 to 1	0.1 to 1	100	50	4.4	1.9	0.011	0.01	0.023	1 to 10	–
O=C(NC(c1ccc(F)cc1)c1ccccn1)C1CCN(CCOc2ccccc2C(F)(F)F)CC1 (centres unmarked) [Compound 52]	> 30	> 30	27 (≈ 13.5 µg/mL)	–	–	–	84	55	46	7	< 0.1	< 0.1	89	7	12.5	9.0	0.009	0.009	0.021	–	–
O=C(NC(c1ccc(F)cc1)c1ccccn1)C1CCN(CCOc2ccccc2F)CC1 (centres unmarked) [Compound 54, 1-(2-(2-fluorophenoxy)ethyl)-N-((4-fluorophenyl)(pyridin-2-yl)methyl) piperidine-4-carboxamide]	> 30	> 30	> 500	–	–	–	96	78	70	66	0.1 to 1	0.1 to 1	100	29	28.4	39.3	0.042	0.039	0.027	–	–
O=C(NC(c1ccccn1)C1CCCCC1)C1CCN(CCOc2ccccc2)CC1 (centres unmarked) [Compound 37, N-(cyclohexyl(pyridin-2-yl)methyl)-1-(2-phenoxyethyl)piperidine-4-carboxamide]	> 30	> 30	197 (≈ 83.1 µg/mL)	0.047	0.051	0.024	100	100	71	28	0.1 to 1	1 to 10	98	31	–	–	–	–	–	–	–

Further lines, with some results ahead:

EC50 (human D2R/β-arrestin [1]) [µM]	EC50 (human D2R/β-arrestin [2]) [µM]	solubility (Solubility in PBS) [µM]	fraction unbound [3]	fraction unbound [4]	fraction unbound [5]	Plasma Stability: % remaining after 5 hours (Plasma stability, human) [%]	Plasma Stability: % remaining after 5 hours (Plasma stability, rat) [%]	Microsomal Stability: % remaining after 60 minutes [6] [%]	Microsomal Stability: % remaining after 60 minutes [7] [%]	IC50 (human D2R/β-arrestin [8]) [µM]	IC50 (human D2R/β-arrestin [9]) [µM]	Plasma Stability: % remaining after 5 hours (Plasma stability, mouse) [%]	Microsomal Stability: % remaining after 60 minutes [10] [%]	SMILES	Caco2 A-B (Caco2)	Caco2 B-A (Caco2)	fraction unbound (plasma protein [11])	fraction unbound (plasma protein [12])	fraction unbound (plasma protein [13])	Ki (D2) [µM]	further results
> 30	0.1 to 1	–	0.053	0.027	0.022	100	98	60	51	0.1 to 1	> 30	100	39	O=C(NC(c1ccc(Cl)cc1)c1cccnc1)C1CCN(CCOc2ccccc2)CC1 (centres unmarked) [Compound 111, N-((4-chlorophenyl)(pyridin-3-yl)methyl)-1-(2-phenoxyethyl)piperidine-4-carboxamide]	–	–	–	–	–	–	–
> 30	10 to 30	452 (≈ 196 µg/mL)	–	–	–	100	94.5	93	100	1 to 10	10 to 30	97	76	O=C(NC(c1ccc(F)cc1)c1ccccn1)C1CCN(CCOc2ccccc2)CC1 (centres unmarked) [Compound 25]	33.7	50.5	0.08	0.047	0.03	1 to 10	–
> 30	0.1 to 1	352 (≈ 158 µg/mL)	0.046	0.056	0.027	94.9	93.2	78	55	1 to 10	> 30	90.5	43	O=C(NC(c1ccc(Cl)cc1)c1ccccn1)C1CCN(CCCc2ccccc2)CC1 (centres unmarked) [Compound 18, N-((4-chlorophenyl)(pyridin-2-yl)methyl)-1-(3-phenylpropyl)piperidine-4-carboxamide]	–	–	–	–	–	–	–
> 30	0.1 to 1	476 (≈ 214 µg/mL)	0.037	0.026	–	94.5	–	58	55	0.1 to 1	> 30	93.4	37	O=C(NC(c1ccc(Cl)cc1)c1ccccn1)C1CCN(CCOc2ccccc2)CC1 (centres unmarked) [Compound 63, N-((4-chlorophenyl)(pyridin-2-yl)methyl)-1-(2-phenoxyethyl)piperidine-4-carboxamide]	25.1	19.9	–	–	–	0.1 to 1	functional profile at D2R (antagonist mode) (human D2R/β-arrestin [14]): representative β-arrestin biased D2R antagonists

Source: patent US10752588B2 (The Broad Institute, Inc., priority 2014, dated 2020)
